According to ChEMBL document CHEMBL4402510, “Caprazamycins: Promising lead structures acting on a novel antibacterial target MraY” (Eur J Med Chem, 2019):
pIC50: −log10 of the molar value. Values after ≈ are worked out from the molar mass of the structure shown.

Tests used:
Enterococcus faecium [1] = assay: Antibacterial activity against Enterococcus faecium ATCC 19434; format: functional
Haemophilus influenzae [2] = assay: Antibacterial activity against Haemophilus influenzae ATCC 10211; format: functional
Enterococcus faecalis [3] = assay: Antibacterial activity against Enterococcus faecalis ATCC 29212; format: functional
Enterococcus faecalis [4] = assay: Antibacterial activity against Enterococcus faecalis SR7914 (VRE); format: functional
[5] = target: T1, Phospho-N-acetylmuramoyl-pentapeptide-transferase (Staphylococcus aureus, UniProt P0C1R8); assay: Inhibition of MraY in Staphylococcus aureus
T1 sequence (P0C1R8 whole entry): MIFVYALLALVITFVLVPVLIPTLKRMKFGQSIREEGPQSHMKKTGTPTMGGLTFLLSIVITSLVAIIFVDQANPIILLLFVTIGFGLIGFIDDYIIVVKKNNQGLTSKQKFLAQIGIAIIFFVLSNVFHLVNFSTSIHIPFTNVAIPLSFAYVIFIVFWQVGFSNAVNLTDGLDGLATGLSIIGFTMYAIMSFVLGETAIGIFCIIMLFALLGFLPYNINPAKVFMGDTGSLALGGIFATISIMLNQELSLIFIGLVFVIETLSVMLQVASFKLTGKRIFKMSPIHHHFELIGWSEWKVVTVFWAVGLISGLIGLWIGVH

Staphylococcus aureus [6] = assay: Antibacterial activity against methicillin susceptible Staphylococcus aureus ATCC 29213; format: functional
Staphylococcus aureus [7] = assay: Antibacterial activity against methicillin resistant Staphylococcus aureus SR3637; format: functional
Enterococcus faecium [8] = assay: Antibacterial activity against Enterococcus faecium SR7917 (VRE); format: functional
Streptococcus pneumoniae = assay: Antibacterial activity against Streptococcus pneumoniae; format: functional
Escherichia coli [9] = assay: Antibacterial activity against Escherichia coli ATCC 25922; format: functional
Acinetobacter baumannii = assay: Antibacterial activity against Acinetobacter baumannii ATCC 19606; format: functional; conditions: ATCC 19606 = CIP 70.34 = JCM 6841
Pseudomonas aeruginosa [10] = assay: Antibacterial activity against Pseudomonas aeruginosa PAO1 deltamexB; format: functional
Pseudomonas aeruginosa [11] = assay: Antibacterial activity against Pseudomonas aeruginosa YY165; format: functional
[12] = system: Mycolicibacterium smegmatis; assay: Antibacterial activity against Mycobacterium smegmatis; format: functional
[13] = system: Mycobacterium tuberculosis; assay: Antibacterial activity against Mycobacterium tuberculosis; format: functional
Mycobacterium avium = assay: Antibacterial activity against Mycobacterium avium; format: functional
[14] = system: Mycobacterium intracellulare; assay: Antibacterial activity against Mycobacterium intracellulare; format: functional
Enterococcus faecalis [15] = assay: Antibacterial activity against t Enterococcus faecalis after 20 hrs by NCCLS-based two-fold broth dilution method; format: functional
Enterococcus faecalis [16] = assay: Antibacterial activity against t Enterococcus faecalis VRE after 20 hrs by NCCLS-based two-fold broth dilution method; format: functional
Staphylococcus aureus [17] = assay: Antibacterial activity against methicillin resistant Staphylococcus aureus after 20 hrs by NCCLS-based two-fold broth dilution method; format: functional
Staphylococcus aureus [18] = assay: Antibacterial activity against methicillin susceptible Staphylococcus aureus after 20 hrs by NCCLS-based two-fold broth dilution method; format: functional
Enterococcus faecium [19] = assay: Antibacterial activity against t Enterococcus faecium VRE after 20 hrs by NCCLS-based two-fold broth dilution method; format: functional
Haemophilus influenzae [20] = assay: Antibacterial activity against Haemophilus influenzae after 20 hrs by NCCLS-based two-fold broth dilution method; format: functional
Enterococcus faecium [21] = assay: Antibacterial activity against t Enterococcus faecium after 20 hrs by NCCLS-based two-fold broth dilution method; format: functional
[22] = target: T2, Phospho-N-acetylmuramoyl-pentapeptide-transferase (Aquifex aeolicus (strain VF5), UniProt O66465); assay: Inhibition of MraY in Aquifex aeolicus
T2 sequence (O66465 whole entry): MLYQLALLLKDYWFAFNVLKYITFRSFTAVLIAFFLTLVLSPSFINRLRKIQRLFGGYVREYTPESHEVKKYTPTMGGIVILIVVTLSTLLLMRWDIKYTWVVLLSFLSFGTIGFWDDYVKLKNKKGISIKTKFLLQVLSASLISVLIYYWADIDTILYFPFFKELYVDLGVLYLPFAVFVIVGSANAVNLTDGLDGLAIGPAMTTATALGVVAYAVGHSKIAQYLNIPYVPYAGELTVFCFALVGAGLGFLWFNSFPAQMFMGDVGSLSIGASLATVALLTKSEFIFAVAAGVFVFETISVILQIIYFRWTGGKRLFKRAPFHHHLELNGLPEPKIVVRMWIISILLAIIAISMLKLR

[23] = target: T3, Phospho-N-acetylmuramoyl-pentapeptide-transferase (Bacillus subtilis (strain 168), UniProt Q03521); assay: Inhibition of MraY in Bacillus subtilis
T3 sequence (Q03521 whole entry): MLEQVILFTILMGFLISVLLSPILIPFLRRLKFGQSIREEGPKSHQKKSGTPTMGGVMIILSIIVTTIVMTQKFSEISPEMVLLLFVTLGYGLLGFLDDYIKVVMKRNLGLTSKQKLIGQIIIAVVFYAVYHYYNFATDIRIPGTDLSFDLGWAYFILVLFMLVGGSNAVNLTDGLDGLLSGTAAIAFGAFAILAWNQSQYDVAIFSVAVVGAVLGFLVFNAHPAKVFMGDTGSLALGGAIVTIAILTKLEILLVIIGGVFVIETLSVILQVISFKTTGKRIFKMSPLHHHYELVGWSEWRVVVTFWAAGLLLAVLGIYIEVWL

Escherichia coli [24] = assay: Antibacterial activity against Escherichia coli ATCC 8730; format: functional
Citrobacter freundii = assay: Antibacterial activity against Citrobacter freundii ATCC 8090; format: functional
Pseudomonas aeruginosa [25] = assay: Antibacterial activity against Pseudomonas aeruginosa ATCC 27853; format: functional
Staphylococcus aureus [26] = assay: Antibacterial activity against Staphylococcus aureus ATCC 25923; format: functional
Staphylococcus aureus [27] = assay: Antibacterial activity against methicillin resistant Staphylococcus aureus ATCC 43300; format: functional
Escherichia coli [28] = assay: Antibacterial activity against Escherichia coli after 20 hrs by NCCLS-based two-fold broth dilution method; format: functional

## CC(=O)N[C@@H]1CCN[C@H]([C@H](O[C@@H]2O[C@H](CN)[C@@H](O)[C@H]2O)[C@H]2O[C@@H](n3ccc(=O)[nH]c3=O)[C@H](O)[C@@H]2O)C1
Enterococcus faecium [1]
  MIC: > 64 µg/mL
Haemophilus influenzae [2]
  MIC: > 64 µg/mL
Enterococcus faecalis [3]
  MIC: > 64 µg/mL
Enterococcus faecalis [4]
  MIC: > 64 µg/mL
[5]
  pIC50: 2.59
Staphylococcus aureus [6]
  MIC: > 64 µg/mL
Staphylococcus aureus [7]
  MIC: > 64 µg/mL
Enterococcus faecium [8]
  MIC: > 64 µg/mL
Streptococcus pneumoniae
  MIC: > 64 µg/mL
Escherichia coli [9]
  MIC: > 64 µg/mL
Acinetobacter baumannii
  MIC: > 64 µg/mL
Pseudomonas aeruginosa [10]
  MIC: > 64 µg/mL
Pseudomonas aeruginosa [11]
  MIC: > 64 µg/mL

## CO[C@@H]1[C@@H](OC)[C@H](C)O[C@@H](OC(=O)C[C@@H](C)CC(=O)O[C@@H](CCCCCCCCC(C)C)CC(=O)O[C@H]2CN(C)[C@@H]([C@H](O[C@@H]3O[C@H](CN)[C@@H](O)[C@H]3O)[C@H]3O[C@@H](n4ccc(=O)[nH]c4=O)[C@H](O)[C@@H]3O)C(=O)N(C)[C@@H]2C(=O)O)[C@@H]1OC
[12]
  MIC: 0.78 to 1.56 µg/mL (≈ 0.698 to 1.4 µM)
[13]
  MIC: 1.56 µg/mL (≈ 1.4 µM)
Mycobacterium avium
  MIC: 0.1 µg/mL (≈ 0.0894 µM)
[14]
  MIC: 1.56 µg/mL (≈ 1.4 µM)

## CCCCCCCCCCCC[C@@H](CC(=O)O[C@H]1CN(C)[C@@H]([C@H](O[C@@H]2O[C@H](CN)[C@@H](O)[C@H]2O)[C@H]2O[C@@H](n3ccc(=O)[nH]c3=O)[C@H](O)[C@@H]2O)C(=O)N(C)[C@@H]1C(=O)O)OC(=O)C[C@H](C)CC(=O)O[C@@H]1O[C@@H](C)[C@H](OC)[C@@H](OC)[C@H]1OC
[12]
  MIC: 0.78 to 1.56 µg/mL (≈ 0.689 to 1.38 µM)
[13]
  MIC: 0.78 µg/mL (≈ 0.689 µM)
Mycobacterium avium
  MIC: < 0.025 µg/mL
[14]
  MIC: 0.78 µg/mL (≈ 0.689 µM)

## CCCCCCCCCCCCCCCC(=O)NC[C@@H]1C[C@H]2[C@@H](C(=O)N1CCCNC(=N)N)[C@H]([C@H]1O[C@@H](n3ccc(=O)[nH]c3=O)[C@H](O)[C@@H]1O)ON2CCCN
Enterococcus faecalis [15]
  MIC: 16 µg/mL (≈ 20.6 µM)
Enterococcus faecalis [16]
  MIC: 16 µg/mL (≈ 20.6 µM)
Staphylococcus aureus [17]
  MIC: 8 µg/mL (≈ 10.3 µM)
Staphylococcus aureus [18]
  MIC: 8 µg/mL (≈ 10.3 µM)
Enterococcus faecium [19]
  MIC: 8 µg/mL (≈ 10.3 µM)
Enterococcus faecalis [3]
  MIC: 16 µg/mL (≈ 20.6 µM)
Enterococcus faecalis [4]
  MIC: 16 µg/mL (≈ 20.6 µM)
Staphylococcus aureus [6]
  MIC: 8 µg/mL (≈ 10.3 µM)
Staphylococcus aureus [7]
  MIC: 8 µg/mL (≈ 10.3 µM)
Enterococcus faecium [8]
  MIC: 8 µg/mL (≈ 10.3 µM)

## CCCCCCCCCCCCCCCC(=O)OC[C@H]1[C@@H](C(=O)N(C)C)[C@H]([C@H]2O[C@@H](n3ccc(=O)[nH]c3=O)[C@H](O)[C@@H]2O)ON1CCCN
Haemophilus influenzae [20]
  MIC: 1 µg/mL (≈ 1.47 µM)
Haemophilus influenzae [2]
  MIC: 1 µg/mL (≈ 1.47 µM)

## CCCCCCCCCCCCCCCCC[C@@H]1CN[C@@H]([C@H](O[C@@H]2O[C@H](CN)[C@@H](O)[C@H]2O)[C@H]2O[C@@H](n3ccc(=O)[nH]c3=O)[C@H](O)[C@@H]2O)C(=O)N(C)[C@@H]1C(=O)O
Enterococcus faecalis [15]; read-out: MIC
  MIC: 4 µg/mL (≈ 5.1 µM)
Enterococcus faecalis [16]; read-out: MIC
  MIC: 8 µg/mL (≈ 10.2 µM)
Staphylococcus aureus [17]; read-out: MIC
  MIC: 4 µg/mL (≈ 5.1 µM)
Staphylococcus aureus [18]; read-out: MIC
  MIC: 4 µg/mL (≈ 5.1 µM)
Enterococcus faecium [21]
  MIC: 8 µg/mL (≈ 10.2 µM)
Enterococcus faecium [19]; read-out: MIC
  MIC: 8 µg/mL (≈ 10.2 µM)
Enterococcus faecium [1]
  MIC: 8 µg/mL (≈ 10.2 µM)
Enterococcus faecalis [3]
  MIC: 8 µg/mL (≈ 10.2 µM)
Enterococcus faecalis [4]
  MIC: 16 µg/mL (≈ 20.4 µM)
Staphylococcus aureus [6]
  MIC: 8 µg/mL (≈ 10.2 µM)
Staphylococcus aureus [7]
  MIC: 8 µg/mL (≈ 10.2 µM)
Enterococcus faecium [8]
  MIC: 16 µg/mL (≈ 20.4 µM)

## NC[C@H]1O[C@@H](O[C@@H](c2cn(Cc3ccc(COc4ccc(C(=O)c5ccccc5)cc4)cc3)nn2)[C@H]2O[C@@H](n3ccc(=O)[nH]c3=O)[C@H](O)[C@@H]2O)[C@H](O)[C@@H]1O
[22]
  pIC50: 4.12
[23]
  pIC50: 4.30
Escherichia coli [24]
  MIC: > 128 µg/mL
Citrobacter freundii
  MIC: > 128 µg/mL
Pseudomonas aeruginosa [25]
  MIC: > 128 µg/mL
Staphylococcus aureus [26]
  MIC: > 128 µg/mL
Staphylococcus aureus [27]
  MIC: 32 µg/mL (≈ 43.1 µM)
Enterococcus faecium [1]
  MIC: > 128 µg/mL

## CCCCCCCCCCCCCCCC(=O)N[C@H]1CCN[C@H]([C@@H](O[C@@H]2O[C@H](CN)[C@@H](O)[C@H]2O)[C@H]2O[C@@H](n3ccc(=O)[nH]c3=O)[C@H](O)[C@@H]2O)C1
Enterococcus faecalis [15]; read-out: MIC
  MIC: 16 µg/mL (≈ 22.5 µM)
Enterococcus faecalis [16]; read-out: MIC
  MIC: 16 µg/mL (≈ 22.5 µM)
Staphylococcus aureus [17]; read-out: MIC
  MIC: 16 µg/mL (≈ 22.5 µM)
Staphylococcus aureus [18]; read-out: MIC
  MIC: 8 µg/mL (≈ 11.2 µM)
Enterococcus faecium [21]
  MIC: 32 µg/mL (≈ 45 µM)
Enterococcus faecium [19]; read-out: MIC
  MIC: 8 µg/mL (≈ 11.2 µM)
Escherichia coli [28]
  MIC: 32 µg/mL (≈ 45 µM)
Enterococcus faecium [1]
  MIC: 32 µg/mL (≈ 45 µM)
Haemophilus influenzae [2]
  MIC: > 64 µg/mL
Enterococcus faecalis [3]
  MIC: 16 µg/mL (≈ 22.5 µM)
Enterococcus faecalis [4]
  MIC: 16 µg/mL (≈ 22.5 µM)
[5]
  pIC50: < 2.57
Staphylococcus aureus [6]
  MIC: 8 µg/mL (≈ 11.2 µM)
Staphylococcus aureus [7]
  MIC: 16 µg/mL (≈ 22.5 µM)
Enterococcus faecium [8]
  MIC: 8 µg/mL (≈ 11.2 µM)
Streptococcus pneumoniae
  MIC: 64 µg/mL (≈ 89.9 µM)
Escherichia coli [9]
  MIC: 32 µg/mL (≈ 45 µM)
Acinetobacter baumannii
  MIC: > 64 µg/mL
Pseudomonas aeruginosa [10]
  MIC: > 64 µg/mL
Pseudomonas aeruginosa [11]
  MIC: > 64 µg/mL
